Experiments:
Assay in all cases: Nanosyn kinase profiling
Format in all cases: biochemical
Settings in all cases: read-out: Percentage inhibition; for inhibition at 0.1 µM: 0.1 µM inhibitor; for inhibition at 1 µM: 1 µM inhibitor
[1] = target: T1, AURKA (Homo sapiens, UniProt O14965)
T1 construct: purchased Nanosyn (enzymatic panel); SGC in-house recombinant human kinases (DSF panel); Invitrogen (ALK1-6)
T1 sequence (O14965 1-403): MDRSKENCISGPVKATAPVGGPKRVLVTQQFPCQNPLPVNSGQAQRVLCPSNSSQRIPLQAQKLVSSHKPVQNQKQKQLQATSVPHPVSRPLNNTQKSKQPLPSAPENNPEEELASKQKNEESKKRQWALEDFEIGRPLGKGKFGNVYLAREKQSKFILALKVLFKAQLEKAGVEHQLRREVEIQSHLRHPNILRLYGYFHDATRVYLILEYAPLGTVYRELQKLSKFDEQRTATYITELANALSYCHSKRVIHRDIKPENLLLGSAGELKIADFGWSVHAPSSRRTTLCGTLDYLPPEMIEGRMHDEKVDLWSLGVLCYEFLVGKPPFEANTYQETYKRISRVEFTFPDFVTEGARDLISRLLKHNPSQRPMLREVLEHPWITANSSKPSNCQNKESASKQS
How it was run: (§1)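 Percent inhibition of each kinase was measured with the inhibitor at 0.1 µM and at 1 µM, as part of a 200-kinase human selectivity panel.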

[2] = target: T2, EPHA3 (Homo sapiens, UniProt P29320)
T2 construct: purchased Nanosyn (enzymatic panel); SGC in-house recombinant human kinases (DSF panel); Invitrogen (ALK1-6)
T2 sequence (P29320 21-983): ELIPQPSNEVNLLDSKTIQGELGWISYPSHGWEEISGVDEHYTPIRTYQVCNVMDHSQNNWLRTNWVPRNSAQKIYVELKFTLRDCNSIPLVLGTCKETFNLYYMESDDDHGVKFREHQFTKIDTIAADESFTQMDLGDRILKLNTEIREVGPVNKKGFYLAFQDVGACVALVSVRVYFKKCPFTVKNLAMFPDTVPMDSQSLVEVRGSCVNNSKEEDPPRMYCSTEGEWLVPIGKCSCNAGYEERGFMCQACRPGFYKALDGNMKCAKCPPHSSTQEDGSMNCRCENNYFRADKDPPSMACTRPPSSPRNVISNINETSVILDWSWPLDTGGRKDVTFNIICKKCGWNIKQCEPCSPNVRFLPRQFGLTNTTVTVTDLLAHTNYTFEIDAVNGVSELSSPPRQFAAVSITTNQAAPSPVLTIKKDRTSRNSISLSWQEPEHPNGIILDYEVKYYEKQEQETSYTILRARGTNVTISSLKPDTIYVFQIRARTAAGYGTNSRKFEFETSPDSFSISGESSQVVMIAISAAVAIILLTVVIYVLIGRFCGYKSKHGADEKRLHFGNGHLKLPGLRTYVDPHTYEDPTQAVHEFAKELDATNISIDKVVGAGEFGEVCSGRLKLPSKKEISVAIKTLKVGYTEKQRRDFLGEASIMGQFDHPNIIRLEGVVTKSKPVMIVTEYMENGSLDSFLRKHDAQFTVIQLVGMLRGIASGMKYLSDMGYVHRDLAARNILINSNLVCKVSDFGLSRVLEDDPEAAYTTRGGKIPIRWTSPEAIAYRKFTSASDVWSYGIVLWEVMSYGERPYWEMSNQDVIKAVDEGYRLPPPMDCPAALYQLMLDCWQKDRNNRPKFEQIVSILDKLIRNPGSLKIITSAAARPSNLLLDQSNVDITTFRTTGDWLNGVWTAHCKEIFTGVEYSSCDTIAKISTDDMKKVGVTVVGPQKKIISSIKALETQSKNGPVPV
How it was run: as §1

[3] = target: T3, FGFR4 (Homo sapiens, UniProt P22455)
T3 construct: purchased Nanosyn (enzymatic panel); SGC in-house recombinant human kinases (DSF panel); Invitrogen (ALK1-6)
T3 sequence (P22455 22-802): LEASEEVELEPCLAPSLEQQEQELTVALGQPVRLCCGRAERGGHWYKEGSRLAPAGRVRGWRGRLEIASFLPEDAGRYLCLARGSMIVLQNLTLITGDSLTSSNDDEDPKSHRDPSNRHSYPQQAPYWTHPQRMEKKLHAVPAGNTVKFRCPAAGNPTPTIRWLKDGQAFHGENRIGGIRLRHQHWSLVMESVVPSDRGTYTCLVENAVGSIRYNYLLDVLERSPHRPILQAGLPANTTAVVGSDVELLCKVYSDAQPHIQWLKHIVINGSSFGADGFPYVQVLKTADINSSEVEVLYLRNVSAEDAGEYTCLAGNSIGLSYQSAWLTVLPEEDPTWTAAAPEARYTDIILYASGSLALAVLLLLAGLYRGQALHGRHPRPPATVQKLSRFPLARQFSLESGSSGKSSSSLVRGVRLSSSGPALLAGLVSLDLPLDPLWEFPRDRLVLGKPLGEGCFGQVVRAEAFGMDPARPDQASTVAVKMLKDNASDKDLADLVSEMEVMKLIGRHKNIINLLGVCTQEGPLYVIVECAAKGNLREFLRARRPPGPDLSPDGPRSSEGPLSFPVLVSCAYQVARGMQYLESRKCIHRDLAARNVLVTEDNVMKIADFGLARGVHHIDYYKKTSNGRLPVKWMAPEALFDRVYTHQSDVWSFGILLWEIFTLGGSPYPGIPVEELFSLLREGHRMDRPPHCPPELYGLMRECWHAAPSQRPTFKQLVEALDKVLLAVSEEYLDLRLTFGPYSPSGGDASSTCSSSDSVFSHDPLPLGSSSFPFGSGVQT
How it was run: as §1

[4] = target: T4, PKA (Homo sapiens, UniProt P17612)
T4 construct: purchased Nanosyn (enzymatic panel); SGC in-house recombinant human kinases (DSF panel); Invitrogen (ALK1-6)
How it was run: as §1

[5] = target: T5, TTK (Homo sapiens, UniProt P33981)
T5 construct: purchased Nanosyn (enzymatic panel); SGC in-house recombinant human kinases (DSF panel); Invitrogen (ALK1-6)
T5 sequence (P33981 1-857): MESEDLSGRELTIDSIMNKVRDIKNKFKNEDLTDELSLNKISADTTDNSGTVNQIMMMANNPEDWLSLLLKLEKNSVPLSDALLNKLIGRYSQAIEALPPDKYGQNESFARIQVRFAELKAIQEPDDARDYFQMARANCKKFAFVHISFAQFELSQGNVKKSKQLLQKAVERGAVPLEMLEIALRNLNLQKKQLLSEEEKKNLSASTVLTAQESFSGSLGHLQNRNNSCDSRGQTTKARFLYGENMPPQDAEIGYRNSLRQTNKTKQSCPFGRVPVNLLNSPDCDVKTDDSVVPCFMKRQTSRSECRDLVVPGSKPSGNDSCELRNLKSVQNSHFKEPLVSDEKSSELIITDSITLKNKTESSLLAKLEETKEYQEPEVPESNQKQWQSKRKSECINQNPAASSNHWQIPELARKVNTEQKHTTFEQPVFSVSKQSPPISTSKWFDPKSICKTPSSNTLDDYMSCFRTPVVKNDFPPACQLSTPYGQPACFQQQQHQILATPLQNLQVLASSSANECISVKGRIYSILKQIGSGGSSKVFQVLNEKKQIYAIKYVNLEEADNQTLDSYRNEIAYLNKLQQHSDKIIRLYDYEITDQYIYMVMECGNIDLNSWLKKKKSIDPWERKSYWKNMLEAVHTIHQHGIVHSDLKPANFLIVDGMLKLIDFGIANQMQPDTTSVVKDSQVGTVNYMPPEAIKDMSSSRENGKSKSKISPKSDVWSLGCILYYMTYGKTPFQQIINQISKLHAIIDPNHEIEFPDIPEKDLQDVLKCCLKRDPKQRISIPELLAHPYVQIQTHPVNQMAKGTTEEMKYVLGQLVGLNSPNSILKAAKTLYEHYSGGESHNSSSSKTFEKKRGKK
How it was run: as §1

[6] = target: T6, p38β (Homo sapiens, UniProt Q15759)
T6 construct: purchased Nanosyn (enzymatic panel); SGC in-house recombinant human kinases (DSF panel); Invitrogen (ALK1-6)
T6 sequence (Q15759 whole entry): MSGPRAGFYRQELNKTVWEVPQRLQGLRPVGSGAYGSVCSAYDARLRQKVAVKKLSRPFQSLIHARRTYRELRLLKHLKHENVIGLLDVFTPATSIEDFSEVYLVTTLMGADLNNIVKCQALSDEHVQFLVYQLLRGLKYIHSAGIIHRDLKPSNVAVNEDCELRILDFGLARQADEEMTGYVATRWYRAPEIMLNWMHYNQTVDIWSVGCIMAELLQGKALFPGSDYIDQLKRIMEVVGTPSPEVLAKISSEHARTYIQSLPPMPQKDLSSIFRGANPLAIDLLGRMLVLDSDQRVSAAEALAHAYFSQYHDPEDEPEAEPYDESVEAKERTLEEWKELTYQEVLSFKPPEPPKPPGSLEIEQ
How it was run: as §1

| SMILES | inhibition at 0.1 µM [1] [%] | inhibition at 1 µM [1] [%] | inhibition at 0.1 µM [2] [%] | inhibition at 1 µM [2] [%] | inhibition at 0.1 µM [3] [%] | inhibition at 1 µM [3] [%] | inhibition at 0.1 µM [4] [%] | inhibition at 1 µM [4] [%] | inhibition at 0.1 µM [5] [%] | inhibition at 1 µM [5] [%] | inhibition at 0.1 µM [6] [%] | inhibition at 1 µM [6] [%] |
| --- | --- | --- | --- | --- | --- | --- | --- | --- | --- | --- | --- | --- |
| COc1cc(-c2cc(-c3cccc(O)c3)cnc2N)cc(OC)c1OC [K02288, 3-[6-amino-5-(3,4,5-trimethoxy-phenyl)-pyridin-3-yl]-phenol] | -2 | -1 | -6 | 4.3 | 4 | 0 | 0.3 | 6.1 | -4 | -1 | 0 | 9.7 |
| c1ccc2c(-c3cnn4cc(-c5ccc(N6CCNCC6)cc5)cnc34)ccnc2c1 [LDN-193189] | 4.2 | 23 | 2.2 | 6.3 | 0.3 | 2.4 | 1.4 | 2.1 | 4.5 | 7.6 | 0.4 | 1.5 |
